{"source": "patent US20190254276A1", "about": "(priority 2010, published 2019)", "key": {"TGEV": {"test_system": "TGEV", "conditions": "45% PG eluate; for Reduction Factor: vs T0"}, "BVDV": {"test_system": "BVDV", "conditions": "45% PG eluate; for Titre: Standard titration; for Reduction Factor: vs T0"}}, "note": "Where two headings read alike, the source gives them in different places."}
{"substance": "propane-1,2-diol [PG]", "values": [{"measurement": "Clearance Factor", "setting": "TGEV; Run 1, T = 0 Load Sample", "value": 0.07, "unit": "log"}, {"measurement": "Titre", "setting": "TGEV; Run 1, T = 0 Load Sample, Standard titration", "value": 5.12, "unit": "log10 TCID50/ml"}, {"measurement": "Clearance Factor", "setting": "TGEV; Run 1, T = 5 min", "value": 124, "unit": "log"}, {"measurement": "Log10TICD50 (total viral load)", "setting": "TGEV; Run 1, T = 5 min", "value": 5.21, "unit": "Log10TICD50"}, {"measurement": "Titre", "setting": "TGEV; Run 1, T = 5 min, Standard titration", "value": 3.95, "unit": "log10 TCID50/ml"}, {"measurement": "Reduction Factor", "setting": "TGEV; Run 1, T = 5 min", "value": 1.0, "unit": "log"}, {"measurement": "Titre", "setting": "TGEV; Run 1, T = 15 min, Standard titration", "value": 2.78, "unit": "log10 TCID50/ml"}, {"measurement": "Titre", "setting": "TGEV; Run 1, T = 60 min, Standard titration", "value": 132, "unit": "log10 TCID50/ml"}, {"measurement": "Reduction Factor", "setting": "TGEV; Run 1, T = 60 min", "value": 3.0, "unit": "log"}, {"measurement": "Clearance Factor", "setting": "TGEV; Run 1, T = 180 min", "value": 4.38, "unit": "log"}, {"measurement": "Log10TICD50 (total viral load)", "setting": "TGEV; Run 1, T = 180 min", "value": 3.08, "unit": "Log10TICD50"}, {"measurement": "Titre", "setting": "TGEV; Run 1, T = 180 min, Standard titration", "value": 0.8, "unit": "log10 TCID50/ml"}, {"measurement": "Titre", "setting": "TGEV; Run 1, T = 360 min, Standard titration", "value": "<0.8", "unit": "log10 TCID50/ml"}, {"measurement": "Clearance Factor", "setting": "TGEV; Run 2, T = 0 Load Sample", "value": 0.08, "unit": "log"}, {"measurement": "Titre", "setting": "TGEV; Run 2, T = 0 Load Sample, Standard titration", "value": 5.28, "unit": "log10 TCID50/ml"}, {"measurement": "Titre", "setting": "TGEV; Run 2, T = 5 min, Standard titration", "value": 4.26, "unit": "log10 TCID50/ml"}, {"measurement": "Reduction Factor", "setting": "TGEV; Run 2, T = 5 min", "value": 1, "unit": "log"}, {"measurement": "Log10TICD50 (total viral load)", "setting": "TGEV; Run 2, T = 15 min", "value": 5.40, "unit": "Log10TICD50"}, {"measurement": "Titre", "setting": "TGEV; Run 2, T = 15 min, Standard titration", "value": 3.2, "unit": "log10 TCID50/ml"}, {"measurement": "Reduction Factor", "setting": "TGEV; Run 2, T = 15 min", "value": 8.05, "unit": "log"}, {"measurement": "Clearance Factor", "setting": "TGEV; Run 2, T = 60 min", "value": 4.50, "unit": "log"}, {"measurement": "Titre", "setting": "TGEV; Run 2, T = 60 min, Standard titration", "value": 0.8, "unit": "log10 TCID50/ml"}, {"measurement": "Reduction Factor", "setting": "TGEV; Run 2, T = 60 min", "value": 4.45, "unit": "log"}, {"measurement": "Titre", "setting": "TGEV; Run 2, T = 180 min, 1 LVP (96 wells)", "value": "−0.12", "unit": "log10 TCID50/ml"}, {"measurement": "Reduction Factor", "setting": "TGEV; Run 2, T = 180 min, LVP", "value": 5.4, "unit": "log"}, {"measurement": "Titre", "setting": "TGEV; Run 2, T = 360 min, 1 LVP (96 wells)", "value": "<−0.12", "unit": "log10 TCID50/ml"}, {"measurement": "Reduction Factor", "setting": "TGEV; Run 2, T = 360 min, LVP", "value": ">5.40", "unit": "log"}, {"measurement": "Clearance Factor", "setting": "BVDV; Run 1, T = 0 Load Sample", "value": 0.43, "unit": "log"}, {"measurement": "Clearance Factor", "setting": "BVDV; Run 1, T = 5 min", "value": 165, "unit": "log"}, {"measurement": "Log10TICD50 (total viral load)", "setting": "BVDV; Run 1, T = 5 min", "value": 4.53, "unit": "Log10TICD50"}, {"measurement": "Titre", "setting": "BVDV; Run 1, T = 5 min", "value": 18, "unit": "log10TCID50/ml"}, {"measurement": "Reduction Factor", "setting": "BVDV; Run 1, T = 5 min", "value": 122, "unit": "log"}, {"measurement": "Clearance Factor", "setting": "BVDV; Run 1, T = 15 min", "value": 13, "unit": "log"}, {"measurement": "Log10TICD50 (total viral load)", "setting": "BVDV; Run 1, T = 15 min", "value": 6.50, "unit": "Log10TICD50"}, {"measurement": "Reduction Factor", "setting": "BVDV; Run 1, T = 15 min", "value": 0.97, "unit": "log"}, {"measurement": "Clearance Factor", "setting": "BVDV; Run 1, T = 60 min", "value": 13, "unit": "log"}, {"measurement": "Log10TICD50 (total viral load)", "setting": "BVDV; Run 1, T = 60 min", "value": 4.90, "unit": "Log10TICD50"}, {"measurement": "Reduction Factor", "setting": "BVDV; Run 1, T = 60 min", "value": 0.97, "unit": "log"}, {"measurement": "Clearance Factor", "setting": "BVDV; Run 1, T = 180 min", "value": 13, "unit": "log"}, {"measurement": "Log10TICD50 (total viral load)", "setting": "BVDV; Run 1, T = 180 min", "value": 4.58, "unit": "Log10TICD50"}, {"measurement": "Reduction Factor", "setting": "BVDV; Run 1, T = 180 min", "value": 0.97, "unit": "log"}, {"measurement": "Clearance Factor", "setting": "BVDV; Run 2, T = 0 Load Sample", "value": 0.44, "unit": "log"}, {"measurement": "Log10TICD50 (total viral load)", "setting": "BVDV; Run 2, T = 0 Load Sample", "value": 5.78, "unit": "Log10TICD50"}, {"measurement": "Titre", "setting": "BVDV; Run 2, T = 25", "value": 132, "unit": "log10TCID50/ml"}, {"measurement": "Reduction Factor", "setting": "BVDV; Run 2, T = 25", "value": 171, "unit": "log"}, {"measurement": "Clearance Factor", "setting": "BVDV; Run 2, T = 5 min", "value": 188, "unit": "log"}, {"measurement": "Titre", "setting": "BVDV; Run 2, T = 5 min", "value": 159, "unit": "log10TCID50/ml"}, {"measurement": "Reduction Factor", "setting": "BVDV; Run 2, T = 5 min", "value": 144, "unit": "log"}, {"measurement": "Clearance Factor", "setting": "BVDV; Run 2, T = 60 min", "value": 168, "unit": "log"}, {"measurement": "Titre", "setting": "BVDV; Run 2, T = 60 min", "value": 189, "unit": "log10TCID50/ml"}, {"measurement": "Reduction Factor", "setting": "BVDV; Run 2, T = 60 min", "value": 144, "unit": "log"}]}
